Non-standard residues stand in square brackets, D forms with d. Residues, ends and D or L forms follow the SMILES beside them. dOrn = NCCC[C@@H](N)C(=O)O
Assays:
[1] = system: A549 non-small cell lung cancer cell line; assay: Alamar blue viability assay; format: cell-based, human; details: 16 ug/mL, 48 hours
Description: Anticancer Testing. A549 non-small cell lung cancer cells (ATCC CCL-185) were obtained directly from ATCC and used within 30 passages. A549 cells were maintained in RPMI 1640 medium supplemented with 10% fetal bovine serum, 100 U/mL penicillin, and 100 ug/mL streptomycin. For anticancer testing, cells were seeded at 2000 cells per well in 96 well plates and allowed to adhere overnight. Cells were then treated with compound at 16 ug/mL (1% DMSO final) or vehicle control for 48 hours. Viability was assessed using Alamar Blue. Specifically, resazurin (Sigma Aldrich, R7017) was dissolved at 440 μM in sterile PBS. 20 μL was then added to each well and incubated for 4-8 h at 37° C. Fluorescence was measured using a SpectraMax iD3 platereader (Excitation: 550 nm, Emission 590 nm). Percent death was calculated by subtracting the background from all wells and setting 0% death to vehicle treated controls.

[2] = system: Colistin-resistant bacteria; assay: CLSI microbroth dilution antibacterial assay, colistin-resistant strains; format: cell-based, E. coli
From the text: (§1) Bacterial Strains. All strains used in this study except the Bacillus strain and the colistin resistant E. coli strains were obtained from Professor Paul Hergenrother (UIUC). The Bacillus strain was obtained from Professor William Metcalf (UIUC). The colistin resistant E. coli strains (AR Bank Number 0346, 0349, and 0350) were obtained from the CDC AR Isolate bank). E. coli ATCC 25922 (wild type, WT) BAA-2469 (resistant, R), colistin resistant E. coli, K pneumonia ATCC 27736 (WT) and BAA-2146 (R), A. baumannii ATCC 19606 (WT) and KB349 (R), and P. aeruginosa PAO1 (WT) and PA1000 (R) were grown on Mueller Hinton Broth 2 (Sigma Aldrich). S. aureus ATCC 29213 (WT) and NRS3 (R), Enterococcus species ATCC 19433 (WT) and 5235 (R), and B. subtilis 6633 (WT) were maintained on Bacto Brain Heart Infusion.
Antibacterial activity analysis. Antibacterial activity analysis for all bacteria was performed using the microdilution broth method as outlined by the Clinical and Laboratory Standards Institute (CLSI).9 Mueller Hinton Broth 2 (MH, Sigma-Aldrich, 90922) was used for all testing. Testing was performed as previously described.10 Turbidity (OD600) of the wells was determined using a SpectraMax iD3 platereader (Molecular Devices). For the compounds that hit during initial screens, minimum inhibitory concentrations were determined. A minimum of three biological replicates were performed. […]

ESKAPE pathogens = assay: CLSI microbroth dilution antibacterial assay; format: cell-based
Description: Bioactivity testing. Initial compounds were tested for activity against antibiotic sensitive and antibiotic resistant ESKAPE pathogens at concentrations varying between 0.5 and 32 μg/mL using the CLSI microbroth dilution assay.^47 Any well with greater than 90% death was considered a hit.
as §1
Antibacterial activity analysis. […] Testing was performed as previously described.10 Turbidity (OD600) of the wells was determined using a SpectraMax iD3 platereader (Molecular Devices). For the compounds that hit during initial screens, minimum inhibitory concentrations were determined. […]

SMILES: CC(C)[C@@H]1NC(=O)[C@@H](CCCNC(=N)N)NC(=O)[C@H]([C@@H](C)O)NC(=O)[C@@H](CCCN)NC(=O)[C@H](Cc2ccccc2)NC(=O)[C@@H](Cc2ccccc2)NC1=O [pNP-43] (cyclo(F[dOrn]T[dR]V[dF]))
- toxicity to A549 cells [1]: no observed hemolytic activity or mammalian cell toxicity
- susceptibility of colistin-resistant bacteria [2]: resistant
- antibacterial activity (in words) (ESKAPE pathogens): activity against several Gram-negative bacteria

— patent US11879142B2, “Bioactive peptide molecules discovered by a combination of bioinformatics technique and chemical synthesis” (Purdue Research Foundation, priority 2021, dated 2024)
